What was measured:
Test in all cases: Microbial growth on agar plates with different concentrations of AgNO3 or HAuCl4
Format in all cases: cell-based
Set-up in all cases: key: x = growth; (x) = weak growth
Conditions in all cases: agar plate
[1] = system: Cupriavidus metallidurans
Description: (§1) To investigate the tolerated concentration of silver and gold, the microorganisms were propagated in liquid medium and streaked on agar plates with different concentrations of AgNO3 or HAuCl4, respectively.

Bacillus sphaericus = system: Bacillus sphaericus
Description: as §1

Xanthomonas campestris = system: Xanthomonas campestris
Description: as §1

Escherichia coli = system: Escherichia coli
Description: as §1

With `[Au+3].[Cl-].[Cl-].[Cl-].[Cl-].[H+]` [HAuCl4] the “Microbial growth in dependence on HAuCl4 concentration” value ([1]; HAuCl4 2 μM) was “x”, the “Microbial growth in dependence on HAuCl4 concentration” value ([1]; HAuCl4 20 μM) was “x” and the “Microbial growth in dependence on HAuCl4 concentration” value ([1]; HAuCl4 100 μM) was “x”. The “Microbial growth in dependence on HAuCl4 concentration” value ([1]; HAuCl4 200 μM) was “x”, the “Microbial growth in dependence on HAuCl4 concentration” value ([1]; HAuCl4 300 μM) was “x” and the “Microbial growth in dependence on HAuCl4 concentration” value ([1]; HAuCl4 400 μM) was “x”. For the same molecule, the “Microbial growth in dependence on HAuCl4 concentration” value ([1]; HAuCl4 500 μM) was “x”, the “Microbial growth in dependence on HAuCl4 concentration” value (Bacillus sphaericus; HAuCl4 2 μM) was “x” and the “Microbial growth in dependence on HAuCl4 concentration” value (Bacillus sphaericus; HAuCl4 20 μM) was “x”. For the same molecule, the “Microbial growth in dependence on HAuCl4 concentration” value (Bacillus sphaericus; HAuCl4 100 μM) was “x”, the “Microbial growth in dependence on HAuCl4 concentration” value (Bacillus sphaericus; HAuCl4 200 μM) was “x” and the “Microbial growth in dependence on HAuCl4 concentration” value (Xanthomonas campestris; HAuCl4 2 μM) was “x”. For the same molecule, the “Microbial growth in dependence on HAuCl4 concentration” value (Xanthomonas campestris; HAuCl4 20 μM) was “x”, the “Microbial growth in dependence on HAuCl4 concentration” value (Xanthomonas campestris; HAuCl4 100 μM) was “x” and the “Microbial growth in dependence on HAuCl4 concentration” value (Xanthomonas campestris; HAuCl4 200 μM) was “x”. For the same molecule, the “Microbial growth in dependence on HAuCl4 concentration” value (Xanthomonas campestris; HAuCl4 300 μM) was “x”, the “Microbial growth in dependence on HAuCl4 concentration” value (Escherichia coli; HAuCl4 2 μM) was “x” and the “Microbial growth in dependence on HAuCl4 concentration” value (Escherichia coli; HAuCl4 20 μM) was “x”. For the same molecule, the “Microbial growth in dependence on HAuCl4 concentration” value (Escherichia coli; HAuCl4 100 μM) was “x”, the “Microbial growth in dependence on HAuCl4 concentration” value (Escherichia coli; HAuCl4 200 μM) was “x” and the “Microbial growth in dependence on HAuCl4 concentration” value (Escherichia coli; HAuCl4 300 μM) was “x”.

With `O=[N+]([O-])[O-].[Ag+]` [AgNO3] the “Microbial growth in dependence on AgNO3 concentration” value ([1]; AgNO3 2 μM) was “x”, the “Microbial growth in dependence on AgNO3 concentration” value ([1]; AgNO3 10 μM) was “x” and the “Microbial growth in dependence on AgNO3 concentration” value ([1]; AgNO3 20 μM) was “x”. The “Microbial growth in dependence on AgNO3 concentration” value ([1]; AgNO3 50 μM) was “x”, the “Microbial growth in dependence on AgNO3 concentration” value ([1]; AgNO3 100 μM) was “x” and the “Microbial growth in dependence on AgNO3 concentration” value ([1]; AgNO3 150 μM) was “x”. The “Microbial growth in dependence on AgNO3 concentration” value ([1]; AgNO3 200 μM) was “(x)”, the “Microbial growth in dependence on AgNO3 concentration” value (Bacillus sphaericus; AgNO3 2 μM) was “x” and the “Microbial growth in dependence on AgNO3 concentration” value (Bacillus sphaericus; AgNO3 10 μM) was “x”. The “Microbial growth in dependence on AgNO3 concentration” value (Bacillus sphaericus; AgNO3 20 μM) was “x”, the “Microbial growth in dependence on AgNO3 concentration” value (Bacillus sphaericus; AgNO3 50 μM) was “x” and the “Microbial growth in dependence on AgNO3 concentration” value (Bacillus sphaericus; AgNO3 100 μM) was “x”. The “Microbial growth in dependence on AgNO3 concentration” value (Bacillus sphaericus; AgNO3 150 μM) was “x”, the “Microbial growth in dependence on AgNO3 concentration” value (Xanthomonas campestris; AgNO3 2 μM) was “x” and the “Microbial growth in dependence on AgNO3 concentration” value (Xanthomonas campestris; AgNO3 10 μM) was “x”. For the same molecule, the “Microbial growth in dependence on AgNO3 concentration” value (Xanthomonas campestris; AgNO3 20 μM) was “x”, the “Microbial growth in dependence on AgNO3 concentration” value (Xanthomonas campestris; AgNO3 50 μM) was “x” and the “Microbial growth in dependence on AgNO3 concentration” value (Xanthomonas campestris; AgNO3 100 μM) was “x”. For the same molecule, the “Microbial growth in dependence on AgNO3 concentration” value (Escherichia coli; AgNO3 2 μM) was “x”, the “Microbial growth in dependence on AgNO3 concentration” value (Escherichia coli; AgNO3 10 μM) was “x” and the “Microbial growth in dependence on AgNO3 concentration” value (Escherichia coli; AgNO3 20 μM) was “x”. For the same molecule, the “Microbial growth in dependence on AgNO3 concentration” value (Escherichia coli; AgNO3 50 μM) was “x” and the “Microbial growth in dependence on AgNO3 concentration” value (Escherichia coli; AgNO3 100 μM) was “x”.
